# Reference: patent US20140004122A1, “METHODS FOR TREATING OR PREVENTING CHOLESTEROL RELATED DISORDERS” (AMGEN INC., priority 2011, published 2014)
# Tested on: hypercholesterolemic subjects with a 10 year Framingham risk score of 10% or less
# Assay: 12 week monotherapy dose-ranging study (Example 24)
# Type: in vivo, human
# Procedure: Ezetimibe was not blinded. The end-of-study visit and the last estimation of lipids was at week 12 for subjects on Q4W IP schedule or on ezetimibe and week 14 for subjects on Q2W IP schedule.
# Males and females, ≧18 to ≦75 years of age, were eligible for this study. Fasting LDL-C was ≧100 mg/dL (2.6 mmol/L) and <190 mg/dL (4.9 mmol/L) and fasting triglycerides ≦400 mg/dL (4.5 mmol/L) by central laboratory at screening.
# The primary endpoint was the percent change from baseline in LDL-C at week 12. Secondary endpoints included percent changes in apolipoprotein B (ApoB), lipoprotein (a) (Lp(a)), and in the ratio of total cholesterol to high-density lipoprotein (HDL)-C. Tolerability and safety were also evaluated.
smiles,measurement,setting,value
"O=C1[C@H](CC[C@H](O)c2ccc(F)cc2)[C@@H](c2ccc(O)cc2)N1c1ccc(F)cc1 [Ezetimibe, ezetimibe, reference compound]",percent change from baseline in LDL-C,"week 12, final data, ezetimibe QD PO",14%
same,Least squares mean percent change from baseline (%) in LDL-C,"week 12, Ezetimibe QD (N = 45)",−14.26%
